# Measured values reported in patent US20070135378A1, “Method for the direct synthesis of oligorhamnosides, composition comprising oligorhamnosides and use thereof as a medicament” (priority 2003, published 2007).
# Legend:
# [1] = tested on: endothelial cells; test: Cytotoxicity test (MTT) on endothelial cell lines; assay type: cell-based
# Description: • Endothelial cells were placed in culture, immortalized and stabilized in their phenotype. The cell lines studied were appendix endothelial cells, brain microvascular endothelial cells, mesenteric lymphatic ganglia endothelial cells, peripheral lymphatic ganglia endothelial cells and skin microvascular endothelial cells.
# The cytotoxicity test was carried out by means of a biochemical test on the transformation of a tetrazolium salt, MTT. […] Viability is indeed always greater than 85%, and this is true for all of the cells lines studied.
# [2] = tested on: LTB4 released by human neutrophilic leukocytes; test: Assay of LTB4 released by human neutrophilic leukocytes; assay type: cell-based; details: stimulation buffer, 0.1 μM
# Description: (§1) Neutrophils are isolated from normal human blood and purified by an original method. They are then activated by a stimulation buffer which causes the release of two types of lipid molecules, arachidonic acid derivatives, arising from the cyclooxygenase and lipoxygenase pathways, namely the leukotriene LTB4 and the prostaglandin PGE2. This stimulation buffer contains in particular Ca^2+ and Mg^2+ ions. These assays are carried out by means of an ELISA-type commercial assay kit.
# The results represent the means of the values assayed in two supernatants of cells stimulated during the same experiment.
# [3] = tested on: dendritic cells; assay type: cell-based
# Description: Viability is determined from the mortality translated directly by the proportion of PI signal.
# [4] = tested on: dendritic cells; test: Dendritic cell maturation (CD86 B7.2 expression, allergenic effect); assay type: cell-based, human; details: control substances, concentration not given
# Description: Three groups of cells are analyzed: 1) those which have not been exposed to oligorhamnosides or the selected activation signals, which will be used as negative controls, 2) those which were incubated for 24 hours with the activation signals, which will be used as positive controls, and 3) those which had been in contact with the oligorhamnosides for 24 hours. The culture medium used is a classical medium of type RPMI 1640 (Bioproducts), supplemented with 10% FCS, glutamine (2 mM) and the antibiotics penicillin and streptomycin (Bioproducts). The rinse liquid used is a PI buffer (Bioproducts). The cellular activator used is INFγ (SIGMA). The allergenic effect is reflected by the maturation of the dendritic cells and the expression of the CD86 B7.2 receptor. The more this receptor is expressed, the higher the proportion of mature cells and the more the rhamnosylated derivative studied has an allergenic effect.
# [5] = tested on: keratinocytes; test: Toxicity test: viability of keratinocytes; assay type: cell-based; details: for % viability: vs control 100%
# From the text: 1) Principles of Cellular Viability Measurement Techniques • MTT [3-(4,5-[…])-2,5-diphenyl tetrazolium bromide] reduction technique (sold by Sigma).
# This technique corresponds to a […] test allowing quantification of living, metabolically active cells in a non-radioactive manner. MTT is a cationic molecule which is bound to the membranes of mitochondria in a potential-dependant fashion. On the level of the mitochondria, MTT will be reduced to formazan blue by mitochondrial dehydrogenase. The living cells are thus colored blue, in contrast with the dead cells which remain transparent. The measure of viability is then carried out by measurement of the optical density using an automatic reader.
# This method of analysis, however, seems to be better adapted for adherent cells (keratinocyte-type) than for non-adherent cells (monocytes and dendritic cells). Another study was thus envisaged to conclude on the cytotoxicity of the oligorhamnosides with respect to the differentiated cells analyzed, namely flow cytometry in the presence of propidium iodide. • XTT tetrazolium salt reduction technique.
# This is a technique allowing quantification of cellular proliferation and of the number of living (metabolically active) cells, without the incorporation of radioactive isotopes. XTT, yellow in color, is a cationic molecule which is bound to the membranes of mitochondria in a potential-dependant fashion, as does MTT.
# On the level of the mitochondria, XTT will be reduced to formazan (orange) by mitochondrial tetrazolium reductase. […] Indeed, the reduction product is soluble within the cell. The method is thus faster. Living cells, in the absence and presence of a treatment become colored, in contrast with dead cells which remain colorless. The level of formazan product is detected with the spectrophotometer at a wavelength of 450 nm and is directly proportional to the number of metabolically active cells.
# 2) Toxicity Tests • Keratinocytes were isolated and placed in culture from human skin biopsies. Measurements of optical density (absorbance) of the 4 wells treated with the same product concentration were averaged. This average was compared with the average of the measurements obtained for the 4 control wells (Student's t-test—comparison of means—significant difference at 95% if p<0.05 and 99% if p<0.01).
# The viabilities of the treated cells are expressed as a percentage compared to the control (untreated cells) of 100% (OD treated/OD control×100).
# [6] = tested on: 6-ketoPGF1α released by NHK; test: Assay of prostaglandin 6-ketoPGF1α after stimulation of keratinocytes (ELISA); assay type: cell-based, human; details: for inhibition at 1 µM: Homo sapiens, Keratinocyte, 2 h
# Description: Prostaglandin I2 (PGI2) is an unstable metabolite of the arachidonic acid degradation pathway. Like prostaglandin E2, it is a mediator of inflammation with vasodilatory properties. The instability of PGI2 lies in its rapid conversion (non-enzymatic hydration) to 6-keto prostaglandin F1α (6-ketoPG1α). It is thus this prostaglandin which is measured as a marker for PGI2 synthesis. PMA (phorbol-12-myristate-13-acetate) is an activator of protein kinase C. It is a non-physiological activator which mimics the effect of cytokines, including IL-1β on NHK, and encourages the cell to release a lipid molecule, the prostaglandin 6-ketoPGF1α. This prostaglandin is assayed by means of an ELISA. The two activators IL-1β and PMA are used. Indomethacin, an aspirin-type analgesic, is an anti-inflammatory drug (NSAID) which […]. It is used to inhibit the release of 6-ketoPGF1α. Two experiments were carried out. The first consists of pretreating the NHK with oligorhamnosides for 4 hours and then monitoring the stimulation for 2 hours in the presence of oligorhamnosides. A second experiment was carried out in which the pretreatment with oligorhamnosides was extended to 12 hours.
# [7] = tested on: PGE2 released by human neutrophilic leukocytes; test: Assay of PGE2 released by human neutrophilic leukocytes; assay type: cell-based
# Description: as §1, with “kit. The results represent the means of the values assayed in two supernatants of cells stimulated during the same experiment.” for “kit.”
# [8] = IL-1β stimulation 2 hours 1 ng/ml, 1 μM
# [9] = PMA stimulation 2 hours 10 ng/ml, 1 μM
smiles,measurement,setting,value
CCCCCOC1O[C@@H](C)[C@H](O)[C@@H](O)[C@H]1O (stereo partly shown) [pentyl-rhamnoside],Viability,[1]; all of the cell lines studied,greater than 85%
same,toxicity (in words),[1]; endothelial cell lines,no toxicity
"CC(Cc1ccc(O)c(O)c1)C(C)Cc1ccc(O)c(O)c1 (stereo not shown) [NDGA, nordihydroguaiaretic acid]",% inhibition (LTB4 released),[2],73%
same,"LTB4 released, Stimulation",[2],684 ± 185 pg/mL
C[S+](C)[O-] [DMSO control],"Viability (propidium iodide, PI)",[3],1.27%
same,CD86 B7.2 (Maturation),[4],0.17%
"C[C@H](O)[C@H](O)[C@@H](O)[C@@H](O)C=O [Rhamnose, rhamnose]",% viability,[5]; 0.001 mg/ml,95%
same,% viability,[5]; 0.01 mg/ml,100%
same,% viability,[5]; 0.1 mg/ml,98%
same,% viability,[5]; 1 mg/ml,104%
same,cytotoxicity (in words),[5]; even for the highest concentrations,does not exhibit cytotoxicity
COc1ccc2c(c1)c(CC(=O)O)c(C)n2C(=O)c1ccc(Cl)cc1 [indomethacin],inhibition at 1 µM,[6]; [8],17%
same,inhibition at 1 µM,[6]; [9],37%
same,Mean 6-ketoPGF1α,[6]; [8],22.6 ± 3.4 pg/ml/μg proteins
same,Mean 6-ketoPGF1α,[6]; [9],20.9 ± 4.9 pg/ml/μg proteins
same,Mean 6-ketoPGF1α,"[6]; Table 7 experiment, IL-1β stimulation 2 hours 1 ng/ml, concentration not given",22.6 ± 3.4 pg/ml/μg proteins
same,"PGE2 released, Without stimulation",[7]; 1 μM,4.5 ± 0 pg/mL
same,inhibition at 1 µM,"[7]; Homo sapiens, Leukocyte, stimulation buffer",69%
same,"PGE2 released, Stimulation","[7]; stimulation buffer, 1 μM",6.8 ± 1 pg/mL
